Structures can show the parent of a compound that is named as a salt.
melting point: 182 to 183 °C
Structure (SMILES): Cc1nc2cc(-c3ccc4nc(CCN5CCC[C@H]5C)ccc4c3)ccc2s1 (as salt: hydrochloride) [Example 14, 6-(2-Methyl-benzothiazol-5-yl)-2-[2-(2R-methyl-pyrrolidin-1-yl)-ethyl]-quinoline]
